Earlier results as cited in US20200253976A1, “Endothelial Facilitation in Neurodegerative Diseases by Cerebral Blood Flow Enhancement” (UNIVERSITY OF MASSACHUSETTS, priority 2017, published 2020).
Where two headings read alike, the source gives them in different places.

Tests used:
[1] = phase 2 study
eNOS = biological target: T1, eNOS (Homo sapiens, UniProt P29474); conditions: endothelial dysfunction where l-arginine is rate-limiting
T1 sequence (P29474 1-1203): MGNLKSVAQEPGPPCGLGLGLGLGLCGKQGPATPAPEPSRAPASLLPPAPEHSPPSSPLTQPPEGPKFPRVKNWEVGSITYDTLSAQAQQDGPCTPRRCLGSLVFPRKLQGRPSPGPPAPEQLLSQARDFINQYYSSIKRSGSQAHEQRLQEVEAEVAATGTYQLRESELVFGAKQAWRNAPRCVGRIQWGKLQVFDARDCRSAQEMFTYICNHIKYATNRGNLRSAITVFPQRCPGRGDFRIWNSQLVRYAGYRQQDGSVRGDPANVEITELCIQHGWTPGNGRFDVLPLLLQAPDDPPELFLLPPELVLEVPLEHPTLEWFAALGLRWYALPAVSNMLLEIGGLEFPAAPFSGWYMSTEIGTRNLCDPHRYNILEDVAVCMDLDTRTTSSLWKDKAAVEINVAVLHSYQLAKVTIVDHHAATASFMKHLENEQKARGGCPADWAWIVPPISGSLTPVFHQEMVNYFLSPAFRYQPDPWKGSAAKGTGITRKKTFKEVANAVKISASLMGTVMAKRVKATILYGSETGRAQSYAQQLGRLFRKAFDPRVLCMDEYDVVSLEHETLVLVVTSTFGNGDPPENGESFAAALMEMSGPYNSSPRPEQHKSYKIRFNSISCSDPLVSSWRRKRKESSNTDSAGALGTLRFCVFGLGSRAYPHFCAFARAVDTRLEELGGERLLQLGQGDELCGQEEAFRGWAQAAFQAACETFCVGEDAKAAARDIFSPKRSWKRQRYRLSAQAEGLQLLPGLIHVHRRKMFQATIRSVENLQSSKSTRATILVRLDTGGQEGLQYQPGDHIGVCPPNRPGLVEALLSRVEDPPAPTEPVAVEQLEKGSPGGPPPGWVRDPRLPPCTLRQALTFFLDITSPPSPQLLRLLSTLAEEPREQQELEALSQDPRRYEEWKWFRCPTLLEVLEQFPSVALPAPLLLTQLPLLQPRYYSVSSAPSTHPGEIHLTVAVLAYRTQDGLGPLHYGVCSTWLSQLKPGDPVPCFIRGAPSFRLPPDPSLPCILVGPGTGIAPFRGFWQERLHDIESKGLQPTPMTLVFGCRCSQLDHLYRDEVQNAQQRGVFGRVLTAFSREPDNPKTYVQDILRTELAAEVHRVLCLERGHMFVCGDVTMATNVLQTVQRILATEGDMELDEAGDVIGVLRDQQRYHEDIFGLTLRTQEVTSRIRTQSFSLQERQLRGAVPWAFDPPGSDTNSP

NOS = conditions: mouse ovarian follicles; L-arginine omitted
[2] = in vivo
[3] = test system: treated subjects with Alzheimer's disease; conditions: human trial in AD, stopped prematurely

Question: For `NC(=O)[C@@H](CCC(F)(F)F)N(Cc1ccc(-c2ncon2)cc1F)S(=O)(=O)c1ccc(Cl)cc1` [Avagacestat], which cognitive benefit [1] is on record?
Answer: no cognitive benefit

Question: With `NC(=O)NCCC[C@H](N)C(=O)O` [L-citrulline] as the molecule, how does the “eNOS activity on supplementation” value (eNOS) read?
Answer: fully restored

Question: What about the “compensation for L-arginine withdrawal (NOS phenotype)” value (NOS) of the same molecule?
Answer: partial compensation

Question: With `NC(=NCCC[C@H](N)C(=O)O)NO` [NG-hydroxy-L-arginine] as the molecule, how does the “compensation for L-arginine withdrawal (NOS phenotype)” value (NOS) read?
Answer: partial compensation

Question: Which “abdominal pain, frequency” value (gastrointestinal side effect) does the source give for `C[C@H](O)[C@H](O)[C@H]1CNc2nc(N)[nH]c(=O)c2N1` [Sapropterin, tetrahydrobiopterin] here?
Answer: 5%

Question: What about the “diarrhea, frequency” value (gastrointestinal side effect) of the same molecule?
Answer: 8%

Question: And the “nausea, frequency” value (gastrointestinal side effect)?
Answer: 4%

Question: What about the “vomiting, frequency” value (gastrointestinal side effect) of the same molecule?
Answer: 8%

Question: What about the “headache, frequency” value (in vivo) of the same molecule?
Answer: 15%

Question: What about the “nasal discharge, frequency” value (upper respiratory symptom) of the same molecule?
Answer: 11%

Question: And the “pain in throat, frequency” value (upper respiratory symptom)?
Answer: 10%

Question: And the “upper respiratory infection, frequency” value (upper respiratory symptom)?
Answer: 12-17%

Question: For `C[C@@H](C(=O)O)c1ccc(-c2ccccc2)c(F)c1` [Tarenflurbil], which “benefit in AD” value [2] is on record?
Answer: failed to produce any benefit

Question: Which results are given for `CC(C)[C@H](O)C(=O)N[C@@H](C)C(=O)N[C@@H]1C(=O)N(C)CCc2ccccc21` [semagacestat]?
Answer: cognitive performance of treated subjects versus control / placebo [3]: significantly worse cognitive performance than control subjects; cognitive performance of treated subjects versus control / placebo ([3]; listed as Semagacestat): exacerbated cognitive decline compared with placebo

Question: What does the source list for “AN-1792: Abeta active immunization (Elan Pharmaceuticals, Inc.)”?
Answer: Aβ in the brain of treated subjects (patients with AD; active immunization): decreased Aβ markedly; progression of dementia (patients with AD; active immunization, even when the amyloid plaques had been removed): failed to decrease the progression of dementia; brain atrophy on quantitative imaging versus control subjects (patients with AD; treated subjects with immunological response and decreased amyloid burden): greater brain atrophy; autoimmune encephalopathy (patients with AD; trial stopped): several subjects developed an autoimmune encephalopathy
